Columns and labels:
[1] = Solubility in PBS at pH 8; details: for Solubility in PBS at pH 8: PBS pH 8, 37° C., levorphanol free base by sonication; for solubility: PBS, 37 °C, pH 8, aqueous buffer, thermodynamic from solid
Experimental: (§1) PBS solutions at various pHs (1.2, 6 and 8) were prepared by adjusting 60-mL volumes of PBS maintained at 37° C. with a dropwise addition of concentrated phosphoric acid and/or 0.01 N NaOH, and monitoring with a pH meter calibrated between pH 4 and 7. […] A 50 μL sample was taken for the t=0 time point. The remaining solution was then divided into five aliquots (175 μL each) in microcentrifuge vials labeled according to sampling time-points. Air-tight sealed vials were then incubated at 37° C. in a temperature-controlled water bath. At each time-point, the appropriate vial was removed from the water bath, and a 50 μL sample drawn for HPLC analysis.

[2] = molecular target: human mu receptor (Homo sapiens, UniProt P35372); assay: Human mu receptor binding (IC50, Ki)
human mu receptor, sequence (P35372 whole entry): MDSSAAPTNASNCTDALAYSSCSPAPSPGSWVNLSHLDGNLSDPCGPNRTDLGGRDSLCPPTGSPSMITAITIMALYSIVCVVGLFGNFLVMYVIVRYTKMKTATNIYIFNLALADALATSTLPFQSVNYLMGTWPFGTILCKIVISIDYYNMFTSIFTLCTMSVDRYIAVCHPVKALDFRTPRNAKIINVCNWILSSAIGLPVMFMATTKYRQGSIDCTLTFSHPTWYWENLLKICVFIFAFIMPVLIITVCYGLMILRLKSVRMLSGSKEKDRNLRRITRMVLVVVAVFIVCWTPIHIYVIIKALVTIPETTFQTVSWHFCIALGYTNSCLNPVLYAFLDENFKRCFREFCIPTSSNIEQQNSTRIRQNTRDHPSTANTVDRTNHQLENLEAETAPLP

[3] = Chemical hydrolysis / aqueous stability in PBS at pH 1.2, 6 and 8, 37° C., HPLC; details: 1 mg/mL
Experimental: as §1

[4] = molecular target: alkaline phosphatase (EC 3.1.3.1) (Bos taurus, UniProt P19111); assay: Enzymatic hydrolysis by alkaline phosphatase at pH 8, 37° C., HPLC
alkaline phosphatase (EC 3.1.3.1), sequence (P19111 20-506 limits assumed): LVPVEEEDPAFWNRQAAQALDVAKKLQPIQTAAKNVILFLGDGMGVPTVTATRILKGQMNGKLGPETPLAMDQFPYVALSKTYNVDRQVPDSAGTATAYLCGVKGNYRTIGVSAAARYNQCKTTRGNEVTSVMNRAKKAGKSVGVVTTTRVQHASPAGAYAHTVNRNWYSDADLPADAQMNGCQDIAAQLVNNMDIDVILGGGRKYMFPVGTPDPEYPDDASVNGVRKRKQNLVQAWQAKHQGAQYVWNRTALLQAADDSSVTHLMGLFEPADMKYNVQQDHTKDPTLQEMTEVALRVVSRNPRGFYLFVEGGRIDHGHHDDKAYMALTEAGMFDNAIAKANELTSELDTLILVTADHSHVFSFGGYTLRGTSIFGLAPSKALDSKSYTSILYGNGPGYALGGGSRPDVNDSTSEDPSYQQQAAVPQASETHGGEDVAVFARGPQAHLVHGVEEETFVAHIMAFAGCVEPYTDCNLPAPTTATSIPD
Experimental: Alkaline Phosphatase (400 units) was added to 10 mL of Alkaline Phosphatase Stabilizing Buffer (APSB; Sigma-Aldrich Catalog #A4955) maintained at 37° C. Solution pH was verified by dropping 25 μL of solution onto calibrated Color-pHast Indicator Strips (pH 2-9, Darmstadt, Germany) and checking the color against the calibration scale. […] At each sampling time point, a 200-μL aliquot was drawn into labeled micro centrifuge tubes, each containing 50 μL of Alkaline Phosphatase Stop Solution (APSS; Sigma-Aldrich Catalog #A5852). Acetonitrile (400 μL) was added to each micro centrifuge tube, vortexed briefly, and centrifuged at 12,000 rpm for 5 min. An aliquot (200 μL) of resulting supernatant was removed from each tube, being careful not to disturb the enzyme pellet at the bottom and transferred to HPLC vials containing low volume inserts.

Structure (SMILES): CN1CC[C@]23CCCC[C@H]2[C@H]1Cc1ccc(O)cc13 [levorphanol, Levorphanol, reference compound]
- Solubility in PBS at pH 8 [1]: less than 1 mg/mL
- solubility [1]: < 1 mg/mL

Structure (SMILES): C[N+]1(COP(=O)(O)O)CCC23CCCCC2C1Cc1ccc(O)cc13 (stereo not drawn) [N-phosphonooxymethyl levorphanol, N-Phosphonooxymethyl Levorphanol]
- Solubility in PBS at pH 8 [1]: approximately 137 mg/mL
- solubility [1]: ~137 mg/mL
- IC50 [2]: 14 nM
- Ki ([2]; human mu receptor, same assay as IC50, read-out: inhibition constant, Ki): 5.7 nM
- Percentage of N-phosphonooxymethyl levorphanol remaining ([3]; pH 1.2 PBS, 0 hours): 100.0
- Percentage of N-phosphonooxymethyl levorphanol remaining ([3]; pH 1.2 PBS, 0.5 hours): 111.5
- Percentage of N-phosphonooxymethyl levorphanol remaining ([3]; pH 1.2 PBS, 1 hour): 104.4
- Percentage of N-phosphonooxymethyl levorphanol remaining ([3]; pH 1.2 PBS, 3 hours): 110.9
- Percentage of N-phosphonooxymethyl levorphanol remaining ([3]; pH 1.2 PBS, 5 hours): 111.1
- Percentage of N-phosphonooxymethyl levorphanol remaining ([3]; pH 1.2 PBS, 23 hours): 110.9
- Percentage of N-phosphonooxymethyl levorphanol remaining ([3]; pH 6 PBS, 0 hours): 100.0
- Percentage of N-phosphonooxymethyl levorphanol remaining ([3]; pH 6 PBS, 0.5 hours): 101.4
- Percentage of N-phosphonooxymethyl levorphanol remaining ([3]; pH 6 PBS, 1 hour): 102.3
- Percentage of N-phosphonooxymethyl levorphanol remaining ([3]; pH 6 PBS, 3 hours): 104.3
- Percentage of N-phosphonooxymethyl levorphanol remaining ([3]; pH 6 PBS, 5 hours): 104.3
- Percentage of N-phosphonooxymethyl levorphanol remaining ([3]; pH 6 PBS, 22 hours): 108.0
- Percentage of N-phosphonooxymethyl levorphanol remaining ([3]; pH 8 PBS, 0 hours): 100.0
- Percentage of N-phosphonooxymethyl levorphanol remaining ([3]; pH 8 PBS, 0.5 hours): 100.6
- Percentage of N-phosphonooxymethyl levorphanol remaining ([3]; pH 8 PBS, 1 hour): 100.3
- Percentage of N-phosphonooxymethyl levorphanol remaining ([3]; pH 8 PBS, 3.5 hours): 99.8
- Percentage of N-phosphonooxymethyl levorphanol remaining ([3]; pH 8 PBS, 6 hours): 100.5
- Percentage of N-phosphonooxymethyl levorphanol remaining ([3]; pH 8 PBS, 24 hours): 103.7
- N-phosphonooxymethyl levorphanol remaining ([4]; alkaline phosphatase, after 30 minutes): no measurable amounts
- share of total peak area that is N-phosphonooxymethyl levorphanol ([4]; alkaline phosphatase, time zero): 1.4%
- time to hydrolyze to levorphanol in the presence of alkaline phosphatase ([4]; pH 8, 40 units AP per mg): ≤ 30 min

Source: patent US20080318905A1, “Prodrugs and methods of making and using the same” (priority 2006, published 2008)
